# Measured values reported in EP3789378A1, “PIPERIDINES OR PIPERIDONES SUBSTITUTED WITH UREA AND HETEROARYL” (Grünenthal GmbH, priority 2019, dated 2021).
# pEC50: −log10 of the molar value.
# Target: T1, h FPR2 (Homo sapiens, UniProt P25090)
# T1 construct: expressed in transfected cells
# T1 sequence (P25090 1-351): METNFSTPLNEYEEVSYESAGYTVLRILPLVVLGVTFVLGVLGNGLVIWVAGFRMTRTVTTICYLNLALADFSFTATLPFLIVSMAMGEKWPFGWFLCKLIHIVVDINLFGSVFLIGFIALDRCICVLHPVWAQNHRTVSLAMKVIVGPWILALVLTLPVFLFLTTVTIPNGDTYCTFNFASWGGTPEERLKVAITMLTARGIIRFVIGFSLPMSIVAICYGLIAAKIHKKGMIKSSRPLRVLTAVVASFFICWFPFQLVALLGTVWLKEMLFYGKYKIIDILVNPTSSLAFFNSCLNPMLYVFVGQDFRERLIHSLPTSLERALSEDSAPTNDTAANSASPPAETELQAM
# Experiment: Agonistic activity in hFPR2-Aq-CHO cells (FLIPR Calcium 5 fluorescence assay)
# Format: cell-based
# Settings: for pEC50: 11 point half log dilution, final assay concentration from 10µM; for activation at 0.1 µM: agonistic response at 0.1µM
# Procedure, shortened: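 EC50 reflects the compound-evoked rise in Calcium 5 fluorescence over basal, recorded for 5 min on FLIPR and compared with no-compound wells. Dye-loaded hFPR2-Aq-CHO cells received half-log dilutions from 10 µM to 100 pM final in pH 7.4 HBSS buffer.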
SMILES,pEC50,activation at 0.1 µM
"COc1ccc([C@@H]2CN(CCS(C)(=O)=O)CC[C@H]2NC(=O)Nc2ccc(Cl)cc2)nc1 (relative stereo) [Ex-93, trans-1-(4-chloro-phenyl)-3-[1'-(2-methanesulfonyl-ethyl)-5-methoxy-1',2',3',4',5',6'-hexahydro-[2,3']bipyridinyl-4'-yl]-urea]",8.52,
"COc1ccc([C@@H]2CN(C(=O)CCN(C)C)CC[C@H]2NC(=O)Nc2ccc(Cl)cc2)nc1 (relative stereo) [Ex-95, trans-1-(4-chloro-phenyl)-3-[1'-(3-dimethylamino-propionyl)-5-methoxy-1',2',3',4',5',6'-hexahydro-[2,3']bipyridinyl-4'-yl]-urea]",7.92,
"CNCC(=O)N1CC[C@@H](NC(=O)Nc2ccc(Cl)cc2)[C@H](c2ccc(OC)cn2)C1 (relative stereo) [Ex-96, trans-1-(4-chloro-phenyl)-3-[5-methoxy-1'-(2-methylamino-acetyl)-1',2',3',4',5',6'-hexahydro-[2,3']bipyridinyl-4'-yl]-urea]",8.40,
"CNCCC(=O)N1CC[C@@H](NC(=O)Nc2ccc(Cl)cc2)[C@H](c2ccc(OC)cn2)C1 (relative stereo) [Ex-97, trans-1-(4-chloro-phenyl)-3-[5-methoxy-1'-(3-methylamino-propionyl)-1',2',3',4',5',6'-hexahydro-[2,3']bipyridinyl-4'-yl]-urea]",8.40,
"COc1ccc([C@@H]2CN(C(=O)c3cnccc3C(F)(F)F)CC[C@H]2NC(=O)Nc2ccc(Cl)cc2)nc1 (relative stereo) [Ex-98, trans-1-(4-chlorophenyl)-3-[3-(5-methoxypyridin-2-yl)-1-{[4-(trifluoromethyl)pyridin-3-yl]carbonyl}piperidin-4-yl]urea]",,26%
"COc1ccc([C@@H]2CN(C(=O)CCO)CC[C@H]2NC(=O)Nc2ccc(Cl)cc2)nc1 (relative stereo) [Ex-102, trans-1-(4-chloro-phenyl)-3-[1'-(3-hydroxy-propionyl)-5-methoxy-1',2',3',4',5',6'-hexahydro-[2,3']bipyridinyl-4'-yl]-urea]",7.57,
"COc1ccc([C@@H]2CN(CCCO)CC[C@H]2NC(=O)Nc2ccc(Cl)cc2)nc1 (relative stereo) [Ex-103, trans-1-(4-chloro-phenyl)-3-[1'-(3-hydroxy-propyl)-5-methoxy-1',2',3',4',5',6'-hexahydro-[2,3']bipyridinyl-4'-yl]-urea]",8.70,
"CN1CCC(C(=O)N2CC[C@@H](NC(=O)Nc3ccc(Cl)cc3)[C@H](c3ccc(Cl)s3)C2)CC1 (relative stereo) [Ex-104, trans-1-(4-chloro-phenyl)-3-[3-(5-chloro-thiophen-2-yl)-1-(1-methyl-piperidine-4-carbonyl)-piperidin-4-yl]-urea]",8.22,
"O=C(Nc1ccc(Cl)cc1)N[C@@H]1CCN(CCCO)C[C@H]1c1ccc(Cl)s1 (relative stereo) [Ex-105, trans-1-(4-chloro-phenyl)-3-[3-(5-chloro-thiophen-2-yl)-1-(3-hydroxy-propyl)-piperidin-4-yl]-urea]",7.96,
"COCCC(=O)N1CC[C@@H](NC(=O)Nc2ccc(Cl)cc2)[C@H](c2ccc(Cl)s2)C1 (relative stereo) [Ex-106, trans-1-(4-chloro-phenyl)-3-[3-(5-chloro-thiophen-2-yl)-1-(3-methoxy-propionyl)-piperidin-4-yl]-urea]",,41%
"COC1CCC(C(=O)N2CC[C@@H](NC(=O)Nc3ccc(Cl)cc3)[C@H](c3ccc(Cl)s3)C2)CC1 (relative stereo) [Ex-107, trans-1-(4-chloro-phenyl)-3-[3-(5-chloro-thiophen-2-yl)-1-(4-methoxy-cyclohexanecarbonyl)-piperidin-4-yl]-urea]",7.34,
"COc1ccc([C@@H]2CN(C3COC3)CC[C@H]2NC(=O)Nc2ccc(Cl)cc2)nc1 (relative stereo) [Ex-108, trans-1-(4-chloro-phenyl)-3-(5-methoxy-1'-oxetan-3-yl-1',2',3',4',5',6'-hexahydro-[2,3']bipyridinyl-4'-yl)-urea]",8.15,
"COc1ccc([C@@H]2CN(CC3COC3)CC[C@H]2NC(=O)Nc2ccc(Cl)cc2)nc1 (relative stereo) [Ex-109, trans-1-(4-chloro-phenyl)-3-(5-methoxy-1'-oxetan-3-ylmethyl-1',2',3',4',5',6'-hexahydro-[2,3']bipyridinyl-4'-yl)-urea]",8.92,
"COc1ccc([C@@H]2CN(C3CCS(=O)(=O)CC3)CC[C@H]2NC(=O)Nc2ccc(Cl)cc2)nc1 (relative stereo) [Ex-110, trans-1-(4-chlorophenyl)-3-(1-(1,1-dioxidotetrahydro-2H-thiopyran-4-yl)-3-(5-methoxypyridin-2-yl)piperidin-4-yl)urea]",7.31,
"COc1ccc([C@@H]2CN(CCCN(C)C)CC[C@H]2NC(=O)Nc2ccc(Cl)cc2)nc1 (relative stereo) [Ex-111, trans-1-(4-chloro-phenyl)-3-[1'-(3-dimethylaminopropyl)-5-methoxy-1',2',3',4',5',6'-hexahydro-[2,3']bipyridinyl-4'-yl]-urea]",9.70,
"COc1ccc([C@@H]2CNCC[C@H]2NC(=O)Nc2ccc(Cl)cc2)nc1 (relative stereo) [Ex-112, trans-1-(4-chlorophenyl)-3-[3-(5-methoxypyridin-2-yl)piperidin-4-yl]urea]",8.92,
"COc1ccc([C@@H]2CN(CC3CCC(O)CC3)CC[C@H]2NC(=O)Nc2ccc(Cl)cc2)nc1 (relative stereo) [Ex-114, trans-1-(4-chloro-phenyl)-3-[1'-(4-hydroxy-cyclohexylmethyl)-5-methoxy-1',2',3',4',5',6'-hexahydro-[2,3']bipyridinyl-4'-yl]-urea]",9.22,
"COc1ccc([C@@H]2CN(CC3CCC(OC)CC3)CC[C@H]2NC(=O)Nc2ccc(Cl)cc2)nc1 (relative stereo) [Ex-115, trans-1-(4-chloro-phenyl)-3-[5-methoxy-1'-(4-methoxy-cyclohexylmethyl)-1',2',3',4',5',6'-hexahydro-[2,3']bipyridinyl-4'-yl]-urea]",9.30,
"COC1CCC(CN2CC[C@@H](NC(=O)Nc3ccc(Cl)cc3)[C@H](c3ccc(Cl)s3)C2)CC1 (relative stereo) [Ex-116, trans-1-(4-chloro-phenyl)-3-[3-(5-chloro-thiophen-2-yl)-1-(4-methoxy-cyclohexylmethyl)-piperidin-4-yl]-urea]",8.05,
"CNCCN1CC[C@@H](NC(=O)Nc2ccc(Cl)cc2)[C@H](c2ccc(OC)cn2)C1 (relative stereo) [Ex-117, trans-1-(4-Chlorophenyl)-3-[3-(5-methoxy-pyridin-2-yl)-1-(2-methylamino-ethyl)-piperidin-4-yl]-urea]",8.52,
"COc1ccc([C@@H]2CN(C(=O)CN(C)C)CC[C@H]2NC(=O)Nc2cc(C)ns2)nc1 (relative stereo) [Ex-118, trans-1-[1-(2-Dimethylamino-acetyl)-3-(5-methoxy-pyridin-2-yl)-piperidin-4-yl]-3-(3-methyl-isothiazol-5-yl)-urea]",8.30,
"COc1ccc([C@@H]2CN(C(=O)C3COC3)CC[C@H]2NC(=O)Nc2cc(C)ns2)nc1 (relative stereo) [Ex-119, trans-1-[3-(5-Methoxy-pyridin-2-yl)-1-(oxetane-3-carbonyl)-piperidin-4-yl]-3-(3-methyl-isothiazol-5-yl)-urea]",8.05,
